In US20240368150A1 (Hoffmann-La Roche Inc., priority 2021, published 2024) one finds EC50 and Emax data, which are given here for 20 compounds.

Like-named read-outs stand apart in the source and are kept apart here. A value given as a limit tells only on which side of the number the result lay.

The subject of assay [1] is primary human T-cells.
In assay [2] the test system is primary human T-cells. The assay is described as follows: Proliferation assay after 5 days (CellTiter-Glo, CD3 stimulation; PBS counter screen). Conditions: CD3 stimulation; for Emax: 5 days, normalized to reference compound A1 as stimulator control = 100%, DMSO neutral control, read-out: Emax proliferation (% activation); for EC50: primary human T-cells, CellTiter-Glo after 5 days, EC50 of fitted sigmoidal curve, read-out: Tcell Proliferation CD3 EC50. The class given is cell-based. The gist of the method: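 After compound addition to medium-only plates, cells are cultured 5 days, equilibrated to room temperature, mixed with an equal volume of CellTiter-Glo 2.0 and rocked 15 min before luminescence is read. Signal reflects ATP content, taken as proportional to cell number.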

Consider `COC1(c2nnc(-c3ccc4c(c3)N(Cc3ccc(Cl)cc3)C(=O)[C@@H](N)CS4(=O)=O)o2)CCOCC1` [Example 371, (3R)-3-amino-5-[(4-chlorophenyl)methyl]-7-[5-(4-methoxytetrahydropyran-4-yl)-1,3,4-oxadiazol-2-yl]-1,1-dioxo-2,3-dihydro-1λ^6,5-benzothiazepin-4-one], for which the EC50 in the assay on primary human T-cells [1] is over 10000 nM. In the assay with primary human T-cells [2] (Homo sapiens, T-cell, 120 h), the Emax was determined as 84% and the EC50 turned out to be 2760 nM.

On to `CC(C)(CN1CCCC1=O)c1nnc(-c2cc3c(cc2F)S(=O)(=O)C[C@H](N)C(=O)N3Cc2ccc(Cl)cc2)o1` [Example 64, (3R)-3-amino-5-[(4-chlorophenyl)methyl]-7-[5-[1,1-dimethyl-2-(2-oxopyrrolidin-1-yl)ethyl]-1,3,4-oxadiazol-2-yl]-8-fluoro-1,1-dioxo-2,3-dihydro-1λ^6,5-benzothiazepin-4-one], for which the EC50 in the assay on primary human T-cells [1] stood at 4350 nM. Besides, in the assay on primary human T-cells [2] (Homo sapiens, T-cell, 120 h), the Emax was found to be 36% and the EC50 is over 10000 nM.

As for `N[C@H]1CS(=O)(=O)c2cc(F)c(-c3nnc(N4C[C@H]5C[C@@H](C4)C5(F)F)o3)cc2N(Cc2ccc(Cl)cc2)C1=O` [Example 469, (3R)-3-amino-5-[(4-chlorophenyl)methyl]-8-fluoro-1,1-dioxo-7-[5-[(1R,5S)-6,6-difluoro-3-azabicyclo[3.1.1]heptan-3-yl]-1,3,4-oxadiazol-2-yl]-2,3-dihydro-1λ^6,5-benzothiazepin-4-one], the EC50 with primary human T-cells [1] is 2550 nM; in the assay on primary human T-cells [2] (Homo sapiens, T-cell, 120 h), 170 nM. The Emax with primary human T-cells [2] (Homo sapiens, T-cell, 120 h) was found to be 105%.

On to `CN[C@@H](C)C(=O)N[C@H]1CS(=O)(=O)c2cc(F)c(-c3nnc(C(C)(C)C)o3)cc2N(Cc2ccc(Cl)cc2)C1=O` [Example 268, (2S)—N-[(3R)-7-(5-tert-butyl-1,3,4-oxadiazol-2-yl)-5-[(4-chlorophenyl)methyl]-8-fluoro-1,1,4-trioxo-2,3-dihydro-1λ^6,5-benzothiazepin-3-yl]-2-(methylamino)propanamide], for which the EC50 worked out at 7820 nM with primary human T-cells [1] and 249 nM with primary human T-cells [2] (Homo sapiens, T-cell, 120 h). In addition, the Emax in the assay on primary human T-cells [2] (Homo sapiens, T-cell, 120 h) was 95%.

For `CC(C)(C)c1nnc(-c2cc3c(cc2F)S(=O)(=O)C[C@H](N)C(=O)N3Cc2ccc(OCCO)cc2)o1` [Example 234, (3R)-3-amino-7-(5-tert-butyl-1,3,4-oxadiazol-2-yl)-8-fluoro-5-[[4-(2-hydroxyethoxy)phenyl]methyl]-1,1-dioxo-2,3-dihydro-1λ^6,5-benzothiazepin-4-one], the EC50 was found to be 5340 nM in the assay on primary human T-cells [1] and 1200 nM in the assay on primary human T-cells [2] (Homo sapiens, T-cell, 120 h). Also, the Emax in the assay on primary human T-cells [2] (Homo sapiens, T-cell, 120 h) is 130%.

For `N[C@H]1CS(=O)(=O)c2cc(F)c(-c3nnc(C4CN(C5CC5)CC(F)(F)C4)o3)cc2N(Cc2ccc(Cl)cc2)C1=O` (stereo partly drawn) [Example 159, (3R)-3-amino-5-[(4-chlorophenyl)methyl]-7-[5-(1-cyclopropyl-5,5-difluoro-3-piperidyl)-1,3,4-oxadiazol-2-yl]-8-fluoro-1,1-dioxo-2,3-dihydro-1λ^6,5-benzothiazepin-4-one], the EC50 with primary human T-cells [1] was determined as 218 nM; in the assay on primary human T-cells [2] (Homo sapiens, T-cell, 120 h) it was 184 nM. In addition, in the assay on primary human T-cells [2] (Homo sapiens, T-cell, 120 h), the Emax is 121%.

In the assay on primary human T-cells [1], `CN1CCC(c2nnc(-c3cc4c(cc3F)S(=O)(=O)C[C@H](N)C(=O)N4Cc3ccc(Cl)cc3)o2)C1` (stereo partly drawn) [Example 144, (3R)-3-amino-5-[(4-chlorophenyl)methyl]-8-fluoro-7-[5-(1-methylpyrrolidin-3-yl)-1,3,4-oxadiazol-2-yl]-1,1-dioxo-2,3-dihydro-1λ^6,5-benzothiazepin-4-one] returned an EC50 of 1820 nM. For the same compound, in the assay on primary human T-cells [2] (Homo sapiens, T-cell, 120 h), the Emax turned out to be 106% and the EC50 turned out to be 6150 nM.

`N[C@H]1CS(=O)(=O)c2cc(F)c(-c3nnc(N4CC5(CCC5)C4)o3)cc2N(Cc2ccc(Cl)cc2)C1=O` [Example 474]: in the assay on primary human T-cells [1], the EC50 amounted to 251 nM. In the assay on primary human T-cells [2] (Homo sapiens, T-cell, 120 h), the Emax is 138% and the EC50 was determined as 135 nM.

For the compound `N[C@H]1C[S+]([O-])c2cc(F)c(-c3noc(N4CCOC5(CC5)C4)n3)cc2N(Cc2ccc(Cl)cc2)C1=O` (single isomer, unassigned; epimer b) [Example 210], the figures for the EC50 with primary human T-cells [1] and with primary human T-cells [2] were 7170 nM and 1550 nM, respectively.

On to `COC(=O)N1CCC2CC2(c2nnc(-c3cc4c(cc3F)S(=O)(=O)C[C@H](N)C(=O)N4Cc3ccc(Cl)cc3)o2)C1` (stereo partly drawn) [Example 178, methyl 1-[5-[(3R)-3-amino-5-[(4-chlorophenyl)methyl]-8-fluoro-1,1,4-trioxo-2,3-dihydro-1λ^6,5-benzothiazepin-7-yl]-1,3,4-oxadiazol-2-yl]-3-azabicyclo[4.1.0]heptane-3-carboxylate], for which the EC50 in the assay on primary human T-cells [1] was 333 nM. In addition, in the assay with primary human T-cells [2] (Homo sapiens, T-cell, 120 h), the Emax worked out at 105% and the EC50 was 206 nM.

`COC(=O)N1CCC(c2nnc(-c3cc4c(cc3F)S(=O)(=O)C[C@H](N)C(=O)N4Cc3ccc(Cl)cc3)o2)CC1` [Example 167, methyl 4-[5-[(3R)-3-amino-5-[(4-chlorophenyl)methyl]-8-fluoro-1,1,4-trioxo-2,3-dihydro-1λ^6,5-benzothiazepin-7-yl]-1,3,4-oxadiazol-2-yl]piperidine-1-carboxylate]: the EC50 in the assay with primary human T-cells [1] worked out at 122 nM. Also, in the assay on primary human T-cells [2] (Homo sapiens, T-cell, 120 h), the Emax came to 100% and the EC50 is 208 nM.

In the case of `CC1(c2nnc(-c3cc4c(cc3F)S(=O)(=O)C[C@H](N)C(=O)N4Cc3ccc(Cl)cc3)o2)CC1` [Example 113, (3R)-3-amino-5-[(4-chlorophenyl)methyl]-8-fluoro-7-[5-(1-methylcyclopropyl)-1,3,4-oxadiazol-2-yl]-1,1-dioxo-2,3-dihydro-1λ^6,5-benzothiazepin-4-one], the EC50 with primary human T-cells [1] amounted to 100 nM. Further, in the assay on primary human T-cells [2] (Homo sapiens, T-cell, 120 h), the Emax was found to be 106% and the EC50 is 107 nM.

Take `N[C@H]1CS(=O)(=O)c2cc(F)c(-c3noc(C4(CO)CCCO4)n3)cc2N(Cc2ccc(OC(F)(F)F)cc2)C1=O` (stereo partly drawn) [Example 332, (3R)-3-amino-8-fluoro-7-[5-[2-(hydroxymethyl)tetrahydrofuran-2-yl]-1,2,4-oxadiazol-3-yl]-1,1-dioxo-5-[[4-(trifluoromethoxy)phenyl]methyl]-2,3-dihydro-1λ^6,5-benzothiazepin-4-one]: the EC50 in the assay on primary human T-cells [1] is 746 nM. Besides, in the assay on primary human T-cells [2] (Homo sapiens, T-cell, 120 h), the Emax amounted to 128% and the EC50 turned out to be 814 nM.

As for `CS(=O)(=O)N1CC(n2nnc(-c3cc4c(cc3F)S(=O)(=O)C[C@H](N)C(=O)N4Cc3ccc(Cl)cc3)n2)CC(F)(F)C1` (stereo partly drawn) [Example 23, (3R)-3-amino-5-[(4-chlorophenyl)methyl]-7-[2-(5,5-difluoro-1-methylsulfonyl-3-piperidyl)tetrazol-5-yl]-8-fluoro-1,1-dioxo-2,3-dihydro-1λ^6,5-benzothiazepin-4-one], the EC50 with primary human T-cells [1] came out at 3790 nM; in the assay on primary human T-cells [2] (Homo sapiens, T-cell, 120 h), 588 nM. Further, the Emax in the assay on primary human T-cells [2] (Homo sapiens, T-cell, 120 h) was 161%.

On to `N[C@H]1CS(=O)(=O)c2ccc(-c3nnc(C4(C(F)(F)F)CC4)o3)cc2N(Cc2ccc(Cl)cc2)C1=O` [Example 366, (3R)-3-amino-5-[(4-chlorophenyl)methyl]-1,1-dioxo-7-[5-[1-(trifluoromethyl)cyclopropyl]-1,3,4-oxadiazol-2-yl]-2,3-dihydro-1λ^6,5-benzothiazepin-4-one], for which the EC50 in the assay on primary human T-cells [1] was 584 nM. Moreover, in the assay on primary human T-cells [2] (Homo sapiens, T-cell, 120 h), the Emax is 106% and the EC50 was 677 nM.

In the case of `COC(=O)N1CC2CC(c3nc(-c4cc5c(cc4F)S(=O)(=O)C[C@H](N)C(=O)N5Cc4ccc(Cl)cc4)no3)(C2)C1` [Example 317, methyl 1-[3-[(3R)-3-amino-5-[(4-chlorophenyl)methyl]-8-fluoro-1,1,4-trioxo-2,3-dihydro-1λ^6,5-benzothiazepin-7-yl]-1,2,4-oxadiazol-5-yl]-3-azabicyclo[3.1.1]heptane-3-carboxylate], the EC50 in the assay with primary human T-cells [1] is 2230 nM. The Emax in the assay with primary human T-cells [2] (Homo sapiens, T-cell, 120 h) was 142%.

`CC(C)(C)NC(=O)c1nnc(-c2cc3c(cc2F)S(=O)(=O)C[C@H](N)C(=O)N3Cc2ccc(Cl)cc2)o1` [Example 90, N-tert-butyl-5-[(3R)-3-amino-5-[(4-chlorophenyl)methyl]-8-fluoro-1,1,4-trioxo-2,3-dihydro-1λ^6,5-benzothiazepin-7-yl]-1,3,4-oxadiazole-2-carboxamide] gave an EC50 with primary human T-cells [1] of 819 nM. For the same compound, in the assay with primary human T-cells [2] (Homo sapiens, T-cell, 120 h), the Emax was determined as 96% and the EC50 is 2340 nM.

Consider `COC1(c2nnc(-c3ccc4c(c3)N(Cc3ccc(Cl)cc3)C(=O)[C@@H](N)CS4(=O)=O)o2)CCC(F)(F)CC1` [Example 378, (3R)-3-amino-5-[(4-chlorophenyl)methyl]-7-[5-(4,4-difluoro-1-methoxy-cyclohexyl)-1,3,4-oxadiazol-2-yl]-1,1-dioxo-2,3-dihydro-1λ^6,5-benzothiazepin-4-one], for which the EC50 in the assay on primary human T-cells [1] was over 10000 nM; with primary human T-cells [2] (Homo sapiens, T-cell, 120 h) it was 447 nM. Besides, in the assay on primary human T-cells [2] (Homo sapiens, T-cell, 120 h), the Emax came to 74%.

On to `CC(=O)N[C@H]1CS(=O)(=O)c2cc(F)c(-c3nnc(C(C)(C)C)o3)cc2N(Cc2ccc(Cl)cc2)C1=O` [Example 258, N-[(3R)-7-(5-tert-butyl-1,3,4-oxadiazol-2-yl)-5-[(4-chlorophenyl)methyl]-8-fluoro-1,1,4-trioxo-2,3-dihydro-1λ^6,5-benzothiazepin-3-yl]acetamide], for which the EC50 in the assay with primary human T-cells [1] was 10800 nM; in the assay on primary human T-cells [2] (Homo sapiens, T-cell, 120 h) it was 586 nM. The Emax with primary human T-cells [2] (Homo sapiens, T-cell, 120 h) stood at 124%.

Regarding `CC1(C#N)CCN(c2nnc(-c3cc4c(cc3F)S(=O)(=O)C[C@H](N)C(=O)N4Cc3ccc(Cl)cc3)o2)CC1` [Example 468, 4-methyl-1-[5-[(3R)-3-amino-5-[(4-chlorophenyl)methyl]-8-fluoro-1,1,4-trioxo-2,3-dihydro-1λ^6,5-benzothiazepin-7-yl]-1,3,4-oxadiazol-2-yl]piperidine-4-carbonitrile], the EC50 with primary human T-cells [1] amounted to 3780 nM. Further, in the assay with primary human T-cells [2] (Homo sapiens, T-cell, 120 h), the Emax is 127% and the EC50 was found to be 2670 nM.
